This is an account of results in patent US20160279269A1, “METHOD AND REAGENT FOR PREPARING A DIAGNOSTIC COMPOSITION” (GE HEALTHCARE AS, priority 2013, published 2016).

The series can be described thus: Measured osmolality of ioforminol injection solution, including on dilution and after autoclaving. It is filed as physicochemical. As for the experimental part: Isotonicity—A solution is isotonic with human blood plasma if no net water migration takes place over the blood cell membranes after mixing the solution with human blood. This means that the measured osmolality of the solution is equal to that of human blood plasma (approx. 290 mOsmol/kg water). This is the goal for any parenteral drug formulation, being more important if injection volumes are relatively large (typically >10 ml) and if injection rate is fast.
Ioforminol 320 mg I/ml injection contains […]. With a molar weight of 1522,13 Dalton, this would be 420.3 mM. This concentrated solution contains 699 g water per litre. Density is 1.357 kg/litre, thus the weight of one litre Ioforminol 320 mg I/ml injection is 1.357 kg. Water is therefore only about half of the weight. Theoretical estimation of osmolality would be 601.5 mOsmol/kg water given 420.3 mM ioforminol, no dissociation under dissolution and 699 g water as solvent.
Knowing that blood plasma osmolality is approx. 290 mOsmol/kg water, such a solution would be hypertonic by a factor 2 even without other components/solutes. Yet measured osmolality of the complete formulation of ioforminol 320 mg I/ml was around 290 mOsmol/kg water. When one subtracts the contribution to osmolality of the other components in the formulation (Tris, EDTA, NaCl and CaCl2), the net contribution of ioforminol was around 129 mOsmol/kg, not around 600 mOsmol/kg. This is approximately 22% of the expected theoretical osmolality if every ioforminol molecule would act as one hydrated particle.
This can be attributed to the very high concentration of ioforminol in the 320 mg I/ml solution. […] However, the percentage only increases to approximately 36% when the concentrated ioforminol composition was diluted more than fourfold. The result of this phenomenon is the linear correlation between ioforminol concentration, salt concentration and osmolality in the interval 70-330 mg I/ml Ioforminol.

Turning to `O=CN(CC(O)CN(C=O)c1c(I)c(C(=O)NCC(O)CO)c(I)c(C(=O)NCC(O)CO)c1I)c1c(I)c(C(=O)NCC(O)CO)c(I)c(C(=O)NCC(O)CO)c1I` (centres unmarked) [ioforminol, 5-[formyl-[3-[formyl-[3,5-bis(2,3-dihydroxypropylcarbamoyl)-2,4,6-triiodophenyl]amino]-2-hydroxypropyl]amino]-N,N′-bis(2,3-dihydroxypropyl)-2,4,6-triiodobenzene-1,3-dicarboxamide], the “net contribution of ioforminol to osmolality” value (320 mg I/ml, contribution of Tris, EDTA, NaCl and CaCl2 subtracted) was “around 129 mOsmol/kg”. The “percentage of the expected theoretical osmolality” value reads like this: (320 mg I/ml, theoretical = every ioforminol molecule acts as one hydrated particle) “approximately 22%”; (after more than fourfold dilution from 320 to 70 mg I/ml) “approximately 36%”. Also, the “percentage contribution to osmolality after autoclaving” value (121° C. for approximately 15 minutes) is reported as “does not change”. Besides, the “osmolality compared to theoretical value” (aqueous solution, theoretical = one molecule acts as one hydrated particle) was “lower”.
